The values that follow come from BindingDB's records for patent US20230270751 (Reviral, 2023).

The target in this test is T1, Nucleoprotein (Human respiratory syncytial virus A (strain A2), UniProt P03418).
T1 sequence (P03418 whole entry): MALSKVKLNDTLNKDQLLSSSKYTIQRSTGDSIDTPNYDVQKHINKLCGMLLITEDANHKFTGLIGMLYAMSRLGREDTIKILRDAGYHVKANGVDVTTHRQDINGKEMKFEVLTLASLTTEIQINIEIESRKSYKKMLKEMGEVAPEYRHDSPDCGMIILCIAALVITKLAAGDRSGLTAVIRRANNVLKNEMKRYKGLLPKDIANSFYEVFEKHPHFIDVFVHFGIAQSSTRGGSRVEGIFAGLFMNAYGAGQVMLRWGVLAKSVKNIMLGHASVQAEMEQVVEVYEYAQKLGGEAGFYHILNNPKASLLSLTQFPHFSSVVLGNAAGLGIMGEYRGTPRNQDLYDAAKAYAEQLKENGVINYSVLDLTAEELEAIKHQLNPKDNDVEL
As to the kind of experiment: Not found.
Text: Not found
What is called EC50 is the midpoint of the concentration-response curve. Read a high EC50 as lower potency in that assay. `O=C(N[C@H]1N=C(c2ccccc2)c2cccc(F)c2NC1=O)c1c(-c2ccccc2F)nn2c1OCC(C1CC1)C2` (stereo not given in full) [US20230270751, Example 13]: the EC50 amounted to 28 nM.

`CN(C(=O)OC(C)(C)C)C1COc2c(C(=O)N[C@H]3N=C(c4ccccc4)c4cccc(F)c4NC3=O)c(-c3ccccc3F)nn2C1` (stereo not given in full) [US20230270751, Example 107] came in with an EC50 of 93 nM. Compared with the last compound, the EC50 is about 3.3-fold higher.

For `O=C(N[C@H]1N=C(c2ccccc2)c2cccc(F)c2NC1=O)c1c(-c2ccccc2F)nn2c1OCC(CN1CCOCC1)C2` (stereo not given in full) [US20230270751, Example 173], the EC50 is 91 nM.

As for `O=C(N[C@H]1N=C(c2ccccc2)c2cccc(F)c2NC1=O)c1c(-c2ccccc2F)nn2c1OCC(CN1CCCC1)C2` (stereo not given in full) [US20230270751, Example 182], a half-maximal response (EC50) required 78 nM.

In the case of `O=C(N[C@H]1N=C(c2ccccc2)c2cccc(F)c2NC1=O)c1c(-c2c(F)cccc2F)nn2c1OCCC2` [US20230270751, Example 196], the half-maximal effective concentration (EC50) came out at 25 nM.
